SMILES strings stand for the structures.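 Growth conditions: 96-well plates. Treatment: test compound, 48 hours, 5 concentrations. Analysis: linear interpolation between bracketing concentrations; unreached endpoints set to highest concentration. GI50 is the concentration that inhibits growth by half.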 Active and inactive are the calls of the source. No stated cut-off is given here; in the data, active = GI50 up to about 1.1 µM and inactive = higher.

Common to all, as to assay: NCI tumour cell line growth inhibition, 48 h
For assay [1], the system named is A498.
For assay [2], the system named is OVCAR-3.
For assay [3], the system named is PC-3.
Assay [4] relates to SNB-19.
Assay [5] concerns HCC 2998.
Assay [6] has as its system NCI-H460.
Assay [7] relates to KM12.
The subject of assay [8] is HL-60.
Assay [9] relates to HOP-92.
Assay [10] relates to HT-29.
Assay [11] deals with SF-295.
Assay [12] relates to UACC-62.
Assay [13] deals with SK-MEL-5.
Assay [14] relates to MDA-MB-231.
Assay [15] relates to UO-31.
Assay [16] deals with HOP-62.
Assay [17] deals with UACC-257.
Assay [18] has as its system NCI/ADR-RES.
Assay [19] has as its system SF-539.
Assay [20] has as its system TK-10.

Turning to `O=C(Nc1ccccc1C(=O)NCc1ccccc1)/C(=C/c1ccccc1O)NC(=O)c1ccccc1`, the GI50 in [1], in assay [2], in assay [3], in assay [4], in [5] and in assay [6] was > 100 µM (inactive) each time. For the same molecule, the GI50 is 4.67 µM (inactive) in [7]; 55.5 µM (inactive) in assay [8]; 75.3 µM (inactive) in assay [9]; > 100 µM (inactive) in assay [10]; 49.9 µM (inactive) in [11]; 33.7 µM (inactive) in assay [12]. For the same molecule, the GI50 in assay [13] was > 100 µM (inactive); in assay [14], 27.1 µM (inactive); in assay [15], 65.6 µM (inactive); in [16], 27.1 µM (inactive); in [17], > 100 µM (inactive); in [18], 88.5 µM (inactive). For the same molecule, the GI50 was > 100 µM (inactive) in assay [19] and 74.6 µM (inactive) in assay [20].

Take `C=C1C2CCC3(CCC4C5(C)CCCC4(C=[N+](CCO)C5)C3C2)C1O` (stereo unspecified): the GI50 in [1], in [2], in assay [3], in [4], in assay [5] and in assay [6] was > 100 µM (inactive) throughout. Further, the GI50 in assay [7], in assay [8], in assay [9], in [10], in assay [11] and in assay [12] was > 100 µM (inactive) each time. Moreover, the GI50 in assay [13], in assay [14], in assay [15], in assay [16], in assay [17] and in [18] was > 100 µM (inactive) in each case. Besides, the GI50 in assay [19] and in assay [20] was > 100 µM (inactive) each time.

With `COc1ccc2nc3ccc(OC)cc3c(SCCO)c2c1`, the GI50 in assay [1] was > 58.1 µM (inactive); in [2], 36 µM (inactive); in assay [3] it was 27.4 µM (inactive); in assay [4], > 59.7 µM (inactive); in assay [5] it was > 75 µM (inactive); in [6], 68.9 µM (inactive). Moreover, the GI50 in [7] is 22.5 µM (inactive); in assay [8] it was 4.17 µM (inactive); in [9], > 67.5 µM (inactive); in [10], 17.3 µM (inactive); in assay [11] it was 49.2 µM (inactive); in [12], 38.5 µM (inactive). For the same molecule, the GI50 was 32.1 µM (inactive) in assay [13]; 34.7 µM (inactive) in [14]; 29.3 µM (inactive) in [15]; > 58.9 µM (inactive) in [16]; 32.7 µM (inactive) in assay [17]; 27 µM (inactive) in assay [18]. The GI50 in assay [19] was 20.7 µM (inactive); in assay [20], 51.3 µM (inactive).

`O=C(c1ccccc1)c1ccc(N2C(=O)/C(=C/Cc3ccco3)N=C2c2ccccc2)c(N2C(=O)/C(=C/Cc3ccco3)N=C2c2ccccc2)c1`: the GI50 in [1] is 51.5 µM (inactive); in assay [2], 21.6 µM (inactive); in [3], 39.8 µM (inactive); in assay [4], 47.4 µM (inactive); in [5], 36.9 µM (inactive); in assay [6], 36.6 µM (inactive). In addition, the GI50 in [7] is 28.4 µM (inactive); in assay [8], 15.3 µM (inactive); in assay [9], 97.1 µM (inactive); in [10] it was 43.4 µM (inactive); in assay [11] it was 30 µM (inactive); in [12] it was 26.5 µM (inactive). For the same molecule, the GI50 in [13] was 26.1 µM (inactive); in [14] it was 37.9 µM (inactive); in [15], 39 µM (inactive); in assay [16] it was 40 µM (inactive); in assay [17], 47.1 µM (inactive); in assay [18] it was 33.8 µM (inactive). For the same molecule, the GI50 was 16.2 µM (inactive) in [19] and 55.8 µM (inactive) in assay [20].

Take `CNC(=O)CNC(=O)C(Cc1ccc(NC(=O)CCCCC(C)=O)cc1)NC(=O)C(CCC(=O)OCc1ccccc1)NC(=O)OC(C)(C)C` (stereo unspecified): the GI50 in [1] was 48.3 µM (inactive); in [2] it was > 100 µM (inactive); in assay [3], > 100 µM (inactive); in assay [4], > 100 µM (inactive); in assay [5], > 100 µM (inactive); in assay [6] it was > 100 µM (inactive). The GI50 in [7], in assay [8], in [9], in assay [10], in assay [11] and in [12] was > 100 µM (inactive) in each case. For the same molecule, the GI50 in assay [13], in assay [14], in [15], in assay [16], in assay [18] and in assay [19] was > 100 µM (inactive) in each case. Besides, the GI50 in [20] is > 100 µM (inactive).

Turning to `O=S1(=O)OCCOS(=O)(=O)C1(F)Cc1ccccc1`, the GI50 in assay [1], in [2], in [3], in [4], in assay [5] and in assay [6] was > 100 µM (inactive) each time. In addition, the GI50 in assay [8], in assay [9], in assay [10], in assay [11], in assay [12] and in assay [13] was > 100 µM (inactive) each time. Further, the GI50 in assay [14], in assay [15], in [16], in assay [18], in [19] and in assay [20] was > 100 µM (inactive) throughout.

As for `CC1=C2C(=O)c3ccccc3C(=O)[C@H]2C[C@@H](N2CCCC2=O)O1`, the GI50 was 54.8 µM (inactive) in assay [1]; 26.5 µM (inactive) in assay [2]; > 100 µM (inactive) in assay [3]; > 100 µM (inactive) in assay [4]; > 100 µM (inactive) in assay [5]; 61.1 µM (inactive) in assay [6]. Besides, the GI50 in assay [7] was 77.6 µM (inactive); in assay [8], 40.8 µM (inactive); in assay [9], 21.9 µM (inactive); in [10] it was 41.6 µM (inactive); in assay [11] it was 66.8 µM (inactive); in [12] it was 33 µM (inactive). Besides, the GI50 in [13] is 17.1 µM (inactive); in [14], 39.6 µM (inactive); in assay [15] it was > 100 µM (inactive); in [16], 39.6 µM (inactive); in [17], 65.6 µM (inactive); in assay [18], 28.4 µM (inactive). For the same molecule, the GI50 was 25.5 µM (inactive) in assay [19] and 70.3 µM (inactive) in assay [20].

Consider `O=C(O)CCC(=O)c1ccc2c(c1)C(C(=O)O)CC2` (stereo unspecified), for which the GI50 in [1], in assay [2], in [3], in assay [4], in assay [5] and in [6] was > 100 µM (inactive) each time. Further, the GI50 in [7], in [8], in assay [9], in assay [10], in assay [11] and in [12] was > 100 µM (inactive) each time. Moreover, the GI50 in assay [13], in [14], in [15], in assay [16], in [17] and in [18] was > 100 µM (inactive) in each case. Moreover, the GI50 in assay [19] and in assay [20] was > 100 µM (inactive) each time.

As to `Nc1nc(N)c2c(n1)CCC(S(=O)(=O)c1ccc3ccccc3c1)C2` (stereo unspecified), the GI50 in assay [1] was 24.9 µM (inactive); in assay [2] it was 10.9 µM (inactive); in [3] it was 17.6 µM (inactive); in assay [4], 3.61 µM (inactive); in assay [5] it was 13.6 µM (inactive); in [6], 0.891 µM (active). In addition, the GI50 in assay [7] was 6.08 µM (inactive); in assay [8], 13.5 µM (inactive); in assay [9], 9.1 µM (inactive); in [10] it was 1.26 µM (inactive); in assay [11] it was 1.66 µM (inactive); in assay [13], 2.55 µM (inactive). The GI50 in [14] was 42.4 µM (inactive); in assay [15], 5.45 µM (inactive); in [16], 9.51 µM (inactive); in assay [17] it was 12.5 µM (inactive); in [18], 43.8 µM (inactive); in assay [19], 3.8 µM (inactive). In assay [20], the GI50 was 4.57 µM (inactive).

Take `COC(=O)c1c2c(cc3c1CC1(C3)Cc3ccc4c(c3C1=O)CCC4)CCC2` (stereo unspecified): the GI50 was 3.42 µM (inactive) in [1]; 1.94 µM (inactive) in assay [2]; 1.79 µM (inactive) in [3]; 4.12 µM (inactive) in [4]; 6.52 µM (inactive) in [5]; 4.84 µM (inactive) in assay [6]. The GI50 in [7] is 2.64 µM (inactive); in assay [8], 2.52 µM (inactive); in [9], 1.84 µM (inactive); in [10], 2.58 µM (inactive); in [11] it was 2.12 µM (inactive); in [12], 2.26 µM (inactive). Also, the GI50 is 2.38 µM (inactive) in assay [13]; 2.01 µM (inactive) in assay [14]; 3.05 µM (inactive) in assay [15]; 3.25 µM (inactive) in assay [16]; 5.04 µM (inactive) in [17]; 1.92 µM (inactive) in assay [18]. Besides, the GI50 is 2.38 µM (inactive) in assay [19] and 8.49 µM (inactive) in assay [20].

The values are drawn from ChEMBL document CHEMBL1201862, “PubChem BioAssay data set” (2004).
